Reference: patent publication US20260159536A1, “AKR1C3-ACTIVATED DNA ALKYLATING AGENT, AND MEDICAL APPLICATION THEREOF” (ASCENTAWITS PHARMACEUTICALS, LTD., priority 2021, published 2026)

Test: in vitro
Details: for half-life at 5 µM: hepatocyte cytosol
Method: (1) Compound A for test, progesterone positive control, and 100 mM stock solutions of AST-3021 inhibitor were prepared and stored in the freezer (−10° C. to −30° C.).
1) Negative control group: at different time points (0 and 60 min), 30 μL/well of hepatocyte cytosol suspension containing 7.5 μM of sample for test was distributed in a 96-well plate. Three replicate wells were prepared in parallel.
2) Positive control group: at different time points (0, 5, 15, 30, 45 and 60 min), 30 μL/well of hepatocyte cytosol suspension containing 7.5 μM of the positive control was distributed in a 96-well plate. Three replicate wells were prepared in parallel.
3) Normal reaction group: at different time points (0, 5, 15, 30, 45 and 60 min), 30 μL/well of hepatocyte cytosol suspension containing 7.5 μM of sample for test was distributed in a 96-well plate. Three replicate wells were prepared in parallel.
4) Inhibition reaction group: at different time points (0, 5, 15, 30, 45 and 60 min), 30 μL/well of hepatocyte cytosol suspension containing […] of sample for test and 4.5 μM of the inhibitor was distributed in a 96-well plate. Three replicate wells were prepared in parallel.
6) 0 min samples: after 150 μL/well of acetonitrile containing the internal standard was added, then 15 μL/well of pre-heated NADPH working solution was added to the samples of normal reaction group, inhibition reaction group and positive control group, and 15 μL/well of pre-heated potassium phosphate buffer was added to the samples of negative control group.
7) Other samples (5, 15, 30, 45 and 60 min): for normal reaction group, inhibition reaction group and positive control group, 15 μL/well of pre-heated NADPH working solution was added to start the reaction; for negative control group, 15 μL/well of pre-heated potassium phosphate buffer was added. The reaction plates were then continued to incubate in a 37° C. water bath and the reactions were stopped by the addition of 150 μL/well of stop solution at the corresponding time points (5, 15, 30, 45 and 60 min).
The concentration of analyte in each sample was expressed as a peak area ratio (peak area analyte/peak areainternal standard), then the peak area ratio at 0 min was used as a reference to calculate the % Remaining at each time point of the incubation, and the ln logarithmic value of the % Remaining was linearly fitted to the incubation time and the half-life was calculated according to the following formula.
In the absence of AST-3021, 5 μM of progesterone was co-incubated with 2 mM of NADPH and 1 mg/mL of hepatocyte cytosol for 0-60 min as a positive control.

SMILES: O=[N+]([O-])c1ccc(C(OP(=O)(N2CC2)N2CC2)C(F)(F)F)cc1Oc1ccc(-c2ccc(F)cc2)c(F)c1 (racemic) [Compound A]
- half-life at 5 µM (CD-1, mouse, Metabolic parameter t1/2, mouse, 2 mM NADPH, no AST-3021 (normal reaction / positive control group), 5 μM): 8.52 h
- half-life at 5 µM (CD-1, mouse, Metabolic parameter t1/2, mouse, negative control group (no NADPH, no AST-3021), 5 μM): 3.72 h
- half-life at 5 µM (CD-1, mouse, half-life, mouse, with NADPH and AST-3021): 2.34 h
- half-life at 5 µM (CD-1, mouse, half-life, mouse, with NADPH, no AST-3021): 8.52 h
- half-life at 5 µM (CD-1, mouse, with AST-3021 (AKR1C3 inhibitor), 3 μM, Metabolic parameter t1/2, mouse, 2 mM NADPH + 3 μM AST-3021 (inhibition reaction group), 5 μM): 2.81 h
- half-life at 5 µM (SD, rat, Metabolic parameter t1/2, rat, 2 mM NADPH, no AST-3021 (normal reaction / positive control group), 5 μM): 2.18 h
- half-life at 5 µM (SD, rat, Metabolic parameter t1/2, rat, negative control group (no NADPH, no AST-3021), 5 μM): 1.83 h
- half-life at 5 µM (SD, rat, with AST-3021 (AKR1C3 inhibitor), 3 μM, Metabolic parameter t1/2, rat, 2 mM NADPH + 3 μM AST-3021 (inhibition reaction group), 5 μM): 1.69 h
- half-life at 5 µM (Sprague-Dawley (SD), rat, half-life, with NADPH and AST-3021): 1.69 h
- half-life at 5 µM (Sprague-Dawley (SD), rat, half-life, with NADPH, no AST-3021): 2.18 h
- half-life at 5 µM (cynomolgus (printed as 'machins'), monkey, Metabolic parameter t1/2, monkey, 2 mM NADPH, no AST-3021 (normal reaction / positive control group), 5 μM): 2.53 h
- half-life at 5 µM (cynomolgus (printed as 'machins'), monkey, Metabolic parameter t1/2, monkey, negative control group (no NADPH, no AST-3021), 5 μM): 2.87 h
- average % Remaining (human, 60 min, no NADPH, no AST-3021): 38.96%
- average % Remaining (human, 60 min, with NADPH, no AST-3021): 43.34%
- half-life at 5 µM (human, Metabolic parameter t1/2, human, 2 mM NADPH, no AST-3021 (normal reaction / positive control group), 5 μM): 0.831 h
- half-life at 5 µM (human, Metabolic parameter t1/2, human, negative control group (no NADPH, no AST-3021), 5 μM): 0.735 h
- half-life at 5 µM (human, half-life, with NADPH and AST-3021): 1.08 h
- half-life at 5 µM (human, half-life, with NADPH, no AST-3021): 0.831 h
- half-life at 5 µM (human, with AST-3021 (AKR1C3 inhibitor), 3 µM, Metabolic parameter t1/2, human, 2 mM NADPH + 3 μM AST-3021 (inhibition reaction group), 5 μM): 1.08 h
- % Remaining (human, with NADPH and AST-3021): 53.65%
- Metabolic parameter k (human, 2 mM NADPH + 3 μM AST-3021 (inhibition reaction group), 5 μM): 0.0107
- average % Remaining (human, 2 mM NADPH + 3 μM AST-3021 (inhibition reaction group), 5 μM, 0 min): 100.00%
- average % Remaining (human, 2 mM NADPH + 3 μM AST-3021 (inhibition reaction group), 5 μM, 5 min): 83.74%
- average % Remaining (human, 2 mM NADPH + 3 μM AST-3021 (inhibition reaction group), 5 μM, 15 min): 78.58%
- average % Remaining (human, 2 mM NADPH + 3 μM AST-3021 (inhibition reaction group), 5 μM, 30 min): 67.01%
- average % Remaining (human, 2 mM NADPH + 3 μM AST-3021 (inhibition reaction group), 5 μM, 45 min): 66.39%
- average % Remaining (human, 2 mM NADPH + 3 μM AST-3021 (inhibition reaction group), 5 μM, 60 min): 53.65%
- Metabolic parameter k (human, 2 mM NADPH, no AST-3021 (normal reaction / positive control group), 5 μM): 0.0139
- average % Remaining (human, 2 mM NADPH, no AST-3021 (normal reaction / positive control group), 5 μM, 0 min): 100.00%
- average % Remaining (human, 2 mM NADPH, no AST-3021 (normal reaction / positive control group), 5 μM, 5 min): 88.27%
- average % Remaining (human, 2 mM NADPH, no AST-3021 (normal reaction / positive control group), 5 μM, 15 min): 79.04%
- average % Remaining (human, 2 mM NADPH, no AST-3021 (normal reaction / positive control group), 5 μM, 30 min): 70.02%
- average % Remaining (human, 2 mM NADPH, no AST-3021 (normal reaction / positive control group), 5 μM, 45 min): 52.35%
- average % Remaining (human, 2 mM NADPH, no AST-3021 (normal reaction / positive control group), 5 μM, 60 min): 43.34%
- Metabolic parameter k (human, negative control group (no NADPH, no AST-3021), 5 μM): 0.0157
- average % Remaining (human, negative control group (no NADPH, no AST-3021), 5 μM, 0 min): 100.00%
- average % Remaining (human, negative control group (no NADPH, no AST-3021), 5 μM, 60 min): 38.96%
- half-life at 5 µM (machin (cynomolgus), monkey, with AST-3021 (AKR1C3 inhibitor), 3 µM, Metabolic parameter t1/2, monkey, 2 mM NADPH + 3 μM AST-3021 (inhibition reaction group), 5 μM): 2.59 h
- half-life at 5 µM (machins, monkey, half-life, with NADPH and AST-3021): 2.59 h
- half-life at 5 µM (machins, monkey, half-life, with NADPH, no AST-3021): 2.53 h
- average % Remaining (monkey, 60 min, no NADPH, no AST-3021): 78.57%
- average % Remaining (monkey, 60 min, with NADPH, no AST-3021): 73.28%
- % Remaining (monkey, with NADPH and AST-3021): 69.52%
- Metabolic parameter k (monkey, 2 mM NADPH + 3 μM AST-3021 (inhibition reaction group), 5 μM): 0.0045
- average % Remaining (monkey, 2 mM NADPH + 3 μM AST-3021 (inhibition reaction group), 5 μM, 0 min): 100.00%
- average % Remaining (monkey, 2 mM NADPH + 3 μM AST-3021 (inhibition reaction group), 5 μM, 5 min): 96.83%
- average % Remaining (monkey, 2 mM NADPH + 3 μM AST-3021 (inhibition reaction group), 5 μM, 15 min): 101.19%
- average % Remaining (monkey, 2 mM NADPH + 3 μM AST-3021 (inhibition reaction group), 5 μM, 30 min): 90.97%
- average % Remaining (monkey, 2 mM NADPH + 3 μM AST-3021 (inhibition reaction group), 5 μM, 45 min): 88.36%
- average % Remaining (monkey, 2 mM NADPH + 3 μM AST-3021 (inhibition reaction group), 5 μM, 60 min): 69.52%
